US20120178915A1, “PYRIMIDINE DERIVATIVES AND ANALOGS, PREPARATION METHOD AND USE THEREOF” (priority 2009, published 2012)
Converted amounts (≈) assume the structure as drawn. Like-named read-outs stand apart in the source and are kept apart here.

Legend:
Type in all cases: cell-based
Gram-positive Bacteria = details: the majority of Bacillus cereus, Bacillus subtilis and Enterococcus faecalis
Bacillus cereus 2 = assay: microbe, parasite or virus in culture; details: 37° C., 24 h, read-out: Minimum Inhibitory Concentration, MIC
Bacillus cereus 246 = assay: microbe, parasite or virus in culture; details: 37° C., 24 h, read-out: Minimum Inhibitory Concentration, MIC
Bacillus subtilis 82 = assay: microbe, parasite or virus in culture; details: 37° C., 24 h, read-out: Minimum Inhibitory Concentration, MIC
Bacillus subtilis 168 = assay: microbe, parasite or virus in culture; details: 37° C., 24 h, read-out: Minimum Inhibitory Concentration, MIC
[1] = test system: Enterococcus faecalis 29212; assay: microbe, parasite or virus in culture; details: 37° C., 24 h, read-out: Minimum Inhibitory Concentration, MIC
[2] = test system: Enterococcus faecalis 51299; assay: microbe, parasite or virus in culture; details: Enterococcus faecalis, 51299, 24 h, read-out: Minimum Inhibitory Concentration, MIC
[3] = test system: Enterococcus faecalis 19433; assay: microbe, parasite or virus in culture; details: 37° C., 24 h, read-out: Minimum Inhibitory Concentration, MIC
[4] = test system: Enterococcus faecalis F2518 (VRE); assay: microbe, parasite or virus in culture; details: 24 h, read-out: Minimum Inhibitory Concentration, MIC
[5] = test system: Enterococcus fecal F631 (VRE); assay: organism not typed; details: 24 h, read-out: Minimum Inhibitory Concentration, MIC
[6] = test system: Enterococcus faecalis 1513 (VRE); assay: microbe, parasite or virus in culture; details: 24 h, read-out: Minimum Inhibitory Concentration, MIC
[7] = test system: Enterococcus faecalis 583 (VRE); assay: microbe, parasite or virus in culture; details: 24 h, read-out: Minimum Inhibitory Concentration, MIC
[8] = test system: Staphylococcus aureus 29231; assay: microbe, parasite or virus in culture; details: 37° C., 24 h, read-out: Minimum Inhibitory Concentration, MIC
[9] = test system: Staphylococcus aureus 43300 (MRSA); assay: microbe, parasite or virus in culture; details: 24 h, read-out: Minimum Inhibitory Concentration, MIC
[10] = test system: Staphylococcus aureus 703 (MRSA); assay: microbe, parasite or virus in culture; details: 24 h, read-out: Minimum Inhibitory Concentration, MIC
[11] = test system: Staphylococcus aureus 704 (MRSA); assay: microbe, parasite or virus in culture; details: 24 h, read-out: Minimum Inhibitory Concentration, MIC
[12] = test system: Staphylococcus aureus 705 (MRSA); assay: microbe, parasite or virus in culture; details: 24 h, read-out: Minimum Inhibitory Concentration, MIC
[13] = test system: Streptococcus pneumoniae 6303 (PRSP); assay: microbe, parasite or virus in culture; details: 24 h, read-out: Minimum Inhibitory Concentration, MIC
[14] = test system: Streptococcus pneumoniae 62; assay: microbe, parasite or virus in culture; details: 37° C., 24 h, read-out: Minimum Inhibitory Concentration, MIC
[15] = test system: Streptococcus pneumoniae 6301; assay: microbe, parasite or virus in culture; details: 37° C., 24 h, read-out: Minimum Inhibitory Concentration, MIC
[16] = test system: Streptococcus pneumoniae M2; assay: microbe, parasite or virus in culture; details: 37° C., 24 h, read-out: Minimum Inhibitory Concentration, MIC
Pyogenic Streptococcus = assay: microbe, parasite or virus in culture; details: 37° C., 24 h, read-out: Minimum Inhibitory Concentration, MIC
[17] = test system: Streptococcus agalactiae B; assay: microbe, parasite or virus in culture; details: 37° C., 24 h, read-out: Minimum Inhibitory Concentration, MIC
green Streptococcus 1009 = assay: microbe, parasite or virus in culture; details: 37° C., 24 h, read-out: Minimum Inhibitory Concentration, MIC
[18] = test system: Streptococcus bovis 10035; assay: microbe, parasite or virus in culture; details: Streptococcus equinus, 37° C., 24 h, read-out: Minimum Inhibitory Concentration, MIC
Streptococcus 10342 = assay: MIC broth microdilution; details: 37° C., 24 h, read-out: Minimum Inhibitory Concentration, MIC
[19] = test system: Streptococcus pneumoniae 10351; assay: microbe, parasite or virus in culture; details: 37° C., 24 h, read-out: Minimum Inhibitory Concentration, MIC
Bacillus anthracis 1 = assay: microbe, parasite or virus in culture; details: Bacillus anthracis, 1, 24 h, read-out: Minimum Inhibitory Concentration, MIC
[20] = test system: Corynebacterium diphtheriae; assay: microbe, parasite or virus in culture; details: 37° C., 24 h, read-out: Minimum Inhibitory Concentration, MIC
Clostridium tetani = assay: microbe, parasite or virus in culture; details: 24 h
Clostridium perfringens = assay: microbe, parasite or virus in culture; details: 24 h, read-out: Minimum Inhibitory Concentration, MIC
Oral candidiasis = assay: MIC broth microdilution; details: Microorganism 32, Oral candidiasis; 37° C., 24 h; read-out: Minimum Inhibitory Concentration, MIC
MIC broth microdilution = details: Microorganism 33, Dermatophytosis; 37° C., 24 h; read-out: Minimum Inhibitory Concentration, MIC
[21] = read-out: Minimum Inhibitory Concentration, MIC, Microorganism 29, Clostridium tetani, 37° C.
[22] = read-out: Minimum Inhibitory Concentration, MIC, Microorganism 30, Clostridium tetani (second line of that name), 37° C.

| Structure (SMILES) | MIC (Bacillus cereus 2) [µM] | MIC (Bacillus cereus 246) [µM] | MIC (Bacillus subtilis 82) [µM] | MIC (Bacillus subtilis 168) [µM] | MIC [1] [µM] | MIC [2] [µM] | MIC [3] [µM] | MIC [4] [µM] | MIC [5] [µM] | MIC [6] [µM] | MIC [7] [µM] | MIC [8] [µM] | MIC [9] [µM] | MIC [10] [µM] | MIC [11] [µM] | MIC [12] [µM] | MIC [13] [µM] | MIC [14] [µM] | MIC [15] [µM] | MIC [16] [µM] | also measured |
| --- | --- | --- | --- | --- | --- | --- | --- | --- | --- | --- | --- | --- | --- | --- | --- | --- | --- | --- | --- | --- | --- |
| O=c1[nH]c(-c2ccc(C(F)(F)F)cc2)nc2cc(Cl)ccc12 [Compound 14] | 20.2 (≈ 6.57 µg/mL) | 30.2 (≈ 9.79 µg/mL) | 10.3 (≈ 3.35 µg/mL) | 12.5 (≈ 4.06 µg/mL) | 15 (≈ 4.87 µg/mL) | 21.5 (≈ 6.98 µg/mL) | 13.5 (≈ 4.38 µg/mL) | 122 (≈ 39.7 µg/mL) | 221 (≈ 71.8 µg/mL) | 130 (≈ 42.3 µg/mL) | 120 (≈ 39.1 µg/mL) | 6.31 (≈ 2.05 µg/mL) | 120 (≈ 39.1 µg/mL) | 125 (≈ 40.6 µg/mL) | 160 (≈ 52 µg/mL) | 210 (≈ 68.3 µg/mL) | 250 (≈ 81.2 µg/mL) | 100 (≈ 32.5 µg/mL) | 141 (≈ 45.7 µg/mL) | 120 (≈ 39 µg/mL) | inhibition of growth (conclusion from MICs) (Gram-positive Bacteria): significantly inhibited the growth; MIC (Pyogenic Streptococcus): 132 µM (≈ 43 µg/mL); MIC [17]: 225 µM (≈ 73.1 µg/mL); MIC (green Streptococcus 1009): 126 µM (≈ 40.7 µg/mL); MIC [18]: 100 µM (≈ 32.6 µg/mL); MIC (Streptococcus 10342): 170 µM (≈ 55.4 µg/mL); MIC [19]: 104 µM (≈ 33.6 µg/mL); MIC (Bacillus anthracis 1): 122 µM (≈ 39.8 µg/mL); MIC [20]: 135 µM (≈ 43.9 µg/mL); MIC (Clostridium tetani; [21]): 160 µM (≈ 52 µg/mL); MIC (Clostridium tetani; [22]): 120 µM (≈ 39.1 µg/mL); MIC (Clostridium perfringens): 125 µM (≈ 40.6 µg/mL); MIC (Oral candidiasis): 133 µM (≈ 43.2 µg/mL); MIC (MIC broth microdilution): 121 µM (≈ 39.4 µg/mL) |
| CCc1nn2c(=O)c(C)c(-c3ccc(C(F)(F)F)cc3)[nH]c2c1-c1ccc(Cl)cc1Cl [Compound 23] | 110 (≈ 51.5 µg/mL) | 200 (≈ 93.4 µg/mL) | 110 (≈ 51.4 µg/mL) | 101 (≈ 47.2 µg/mL) | 220 (≈ 103 µg/mL) | 130 (≈ 60.8 µg/mL) | 140 (≈ 65.4 µg/mL) | 215 (≈ 100 µg/mL) | 80.5 (≈ 37.5 µg/mL) | 152 (≈ 71 µg/mL) | 132 (≈ 61.3 µg/mL) | 282 (≈ 131 µg/mL) | 120 (≈ 56.2 µg/mL) | 131 (≈ 60.9 µg/mL) | 180 (≈ 84 µg/mL) | 150 (≈ 70 µg/mL) | 231 (≈ 108 µg/mL) | 160 (≈ 74.8 µg/mL) | 170 (≈ 79.4 µg/mL) | 200 (≈ 93.4 µg/mL) | MIC (Pyogenic Streptococcus): 231 µM (≈ 108 µg/mL); MIC [17]: 200 µM (≈ 93.5 µg/mL); MIC (green Streptococcus 1009): 210 µM (≈ 98.1 µg/mL); MIC [18]: 153 µM (≈ 71.3 µg/mL); MIC (Streptococcus 10342): 123 µM (≈ 57.4 µg/mL); MIC [19]: 155 µM (≈ 72.4 µg/mL); MIC (Bacillus anthracis 1): 166 µM (≈ 77.6 µg/mL); MIC [20]: 162 µM (≈ 75.3 µg/mL); MIC (Clostridium tetani; [21]): 80.2 µM (≈ 37.4 µg/mL); MIC (Clostridium tetani; [22]): 50.2 µM (≈ 23.4 µg/mL); MIC (Clostridium perfringens): 30.6 µM (≈ 14.3 µg/mL); MIC (Oral candidiasis): 122 µM (≈ 56.9 µg/mL); MIC (MIC broth microdilution): 56.1 µM (≈ 26.2 µg/mL) |
